Source: patent publication US9101600B2, “Compounds as RORγt modulators and uses thereof” (New York University, priority 2010, dated 2015)

What was measured:
[1] = test system: mouse Th17 cell differentiation; assay: Cytokine induced mouse Th17 cell differentiation (IL17a production, FACS); type: cell-based; settings: for percentage of mouse Th17 cells (IL17a production): compound added Day 1, analyzed Day 4
Procedure: Cytokine induced mouse Th17 cells differentiation. Effects on mouse endogenous RORγt in a relevant physiological setting were determined by testing compounds in the Th17 cell differentiation assay. […] Th1 or regulatory T cell differentiation was used as a counter-screen method to select specific compounds that only affect Th17 cell differentiation without having pleiotrophic effects on general T cell proliferation or cytokine production.
Naive CD4 T cells were cultured with CD3/CD28 stimulatory antibodies in presence of TGFβ and IL6. Compounds were added on Day 1 and cells were analyzed on Day 4. Numbers shown in Table 3 indicate the percentage of mouse Th17 cells.
CD25^−, CD62L^+, and CD44^int-high cells were sorted from B6 mice.

RORγ/γt = RORγ/γt (Mus musculus, UniProt P51450, T352K); assay: RORγ/γt-luc reporter S2 cell assay / HTS (firefly luciferase); settings: for Curve Class: RORγ/γt HTS concentration response curve class
Sequence of RORγ/γt (P51450 with tags, fused parts or gaps T352K): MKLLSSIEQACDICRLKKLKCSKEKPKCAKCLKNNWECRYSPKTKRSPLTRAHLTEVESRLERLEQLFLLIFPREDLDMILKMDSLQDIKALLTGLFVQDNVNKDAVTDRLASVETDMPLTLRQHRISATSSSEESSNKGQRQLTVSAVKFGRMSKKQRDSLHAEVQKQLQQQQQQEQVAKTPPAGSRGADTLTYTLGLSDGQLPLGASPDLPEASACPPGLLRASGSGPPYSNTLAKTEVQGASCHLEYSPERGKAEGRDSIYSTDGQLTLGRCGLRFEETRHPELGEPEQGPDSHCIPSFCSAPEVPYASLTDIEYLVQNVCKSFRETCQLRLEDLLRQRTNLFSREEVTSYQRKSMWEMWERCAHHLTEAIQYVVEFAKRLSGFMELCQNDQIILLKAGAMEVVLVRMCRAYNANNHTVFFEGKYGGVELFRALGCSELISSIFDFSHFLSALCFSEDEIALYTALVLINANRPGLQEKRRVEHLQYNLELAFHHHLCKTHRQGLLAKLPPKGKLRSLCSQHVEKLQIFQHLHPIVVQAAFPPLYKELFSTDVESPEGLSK
Text: The Drosophila S2 cell line was originally purchased from Invitrogen and was maintained in Schneider's medium supplemented with 10% heat-inactivated bovine fetal calf serum and antibiotics (Invitrogen). Gal4 DNA binding domain (G4 DBD) corresponding to amino acids 1 through 147 of Gal4 protein was PCR amplified to make a fusion construct with mouse RORγt (amino acids 79 to the carboxyl terminal end) lacking its DNA binding domain. The resulting chimeric gene was subcloned into the copper inducible pMT/V5-His A vector (available from Invitrogen). In a similar manner, Gal4 fusion constructs were prepared with mouse RORα (amino acids 142 to end) or Drosophila DHR3 (amino acids 120 to end).
In order to generate stable cell lines, cells were co-transfected with pMT-G4 DBD-RORγt, pMT-G4 DBD-RORα, pMT-G4 DBD-DHR3, or pMT-G4DBDVP16 and pHygro plasmids (Invitrogen) and screened for resistant colonies in the presence of hygromycin (0.3 mg/mL). More than 150 independent RORγ stable clones with luciferase reporters (pMt-RORγ_luc) were tested for their suitability for the high-throughput screening (HTS) based on the following criteria: high signal-to background ratio in 384- and 1,536-well plates, their high induction rate upon the addition of copper, and RORγ/γt specificity probed by the dsRORγ- or RORγ/γt antagonist-mediated suppression. Positive clones were further transfected with pUAST-firefly luciferase, polIII-Renilla luciferase, and pCoPuro (Iwaki, Figuera et al. 2003) (“Rapid selection of Drosophila S2 cells with the puromycin resistance gene.” Biotechniques 35(3): 482-4, 486.) and selected with puromycin (2.5 ug/ml). […] Using similar methods, stable clones with genomic integration of the luciferase reporters and other reporters were generated such as pMT-RORα_luc, pMT-DHR3_luc, or pMT-VP16_luc.
600 G4 DBD-RORγ/γt-luc reporter (#25) or G4 DBD-VP16-luc reporter cells were distributed into each well of 1,536-well white bottom plates in 4 μl S2 cell culture volume containing hygromicin (300 μg/ml) and puromycin (2 μg/ml). Small compounds in seven different concentrations range from 46 μM to 1.7 nM were pin-transferred (23 nl) by a robot (Inglese et al., 2006, Proc. Natl. Acad. Sci. 103:11473-8). […] After 20-hour incubation at ambient temperature, 1.5 μl firefly luciferase detection mix was added and the luciferase activities were measured in 10 min. ViewLux luminometers were used for measuring luciferase signal.
Since their cognate DNA binding sites were not well characterized, the DNA binding domains (DBD) of RORγ/γt, RORα(mouse homolog for PORγ), and DHR3 (Drosophila orthologue for ROR family proteins) were replaced with the heterologous yeast GAL4 DBD. The transcriptionally active domain of general transcriptional activator VP16 was also fused with GAL4 DBD.

Structure (SMILES)	percentage of mouse Th17 cells (IL17a production) ([1]; 20 μM, DMSO 17% Th17)	Curve Class (RORγ/γt)	AC50 (RORγ/γt)	further results
CC(C)(C)c1ccc(-c2noc(CCC(=O)Nc3cccnc3)n2)cc1 [MLS001217081-02]	8.3%			
C=C(NC(=O)c1ccccc1)N1CCN(c2ncc3c(=O)c(C(=O)O)cn(CC)c3n2)CC1 [MLS000777984-02]	8.9%			effect on mouse Th17 cell differentiation / IL-17a in mouse CD4 T cells (in words) ([1]; IL-6 and TGF-β): RORγt specific inhibitory effects
C[C@H]1[C@H](C)CC[C@]2(C(=O)O)CC[C@]3(C)C(=CC[C@@H]4[C@@]5(C)CC[C@H](O)C(C)(C)[C@@H]5CC[C@]43C)[C@H]12 [MLS000728569-02]	dead			percentage of mouse Th17 cells (IL17a production) ([1]; 5 μM, DMSO 25% Th17): 3.7%
CCOC(=O)C1CCN(CC(=O)Nc2cc(C)nn2-c2nc3ccccc3s2)CC1 [MLS000569401-02]				percentage of mouse Th17 cells (IL17a production) ([1]; 5 μM, DMSO 25% Th17): 15%
CC1OC(OC2C(O)CC(OC3C(O)CC(OC4CCC5(C)C(CCC6C5CC(O)C5(C)C(C7=CC(=O)OC7)CCC65O)C4)OC3C)OC2C)CC(O)C1O (stereo not drawn) [digoxin, reference compound]				Th17 (percentage of mouse Th17 cells) ([1]; 10 μM, DMSO 26% (Table 5)): 0.91%
CCOc1ccc(-c2cc(CCCC(=O)NCc3cccnc3)no2)cc1 [MLS000118457-02]	10.7%			
CC(=O)[C@@]1(O)CC[C@H]2[C@H]3C[C@@H](C)C4=CC(=O)C=C[C@]4(C)[C@@]3(F)[C@@H](O)C[C@]21C [NCGC00016442-02]	2.6%			percentage of mouse Th17 cells (IL17a production) ([1]; 5 μM, DMSO 25% Th17): 4.8%
Cc1cc(C)n(-c2nc(SCC(=O)O)c3c4c(sc3n2)CCCC4)n1 [MLS000778763-02]	10.2%			
CCOC(=O)[C@H]1[C@H]2COc3cc(OC)ccc3[C@@H]2N2C(=O)N(c3ccc(Br)cc3)C(=O)[C@@]12C [MLS001066259-01]		4		
Cc1nn(-c2cc(C)c3ccccc3n2)c2c1C1C(C2)C1(C)C (stereo not drawn) [MLS000526165-02]	8.3%			
Cc1cccc(-c2nc3cc(NC(=O)C4CCCO4)ccc3o2)c1 (stereo not drawn) [MLS000700815-02]	11.9%			
CCOC(=O)[C@@H]1[C@H]2COc3cc(OC)ccc3[C@H]2N2C(=O)N(c3cccc(Cl)c3)C(=O)[C@]12C [MLS001066301-01]		4	631 nM	
CCOC(=O)[C@@H]1[C@H]2COc3cc(OC)ccc3[C@@H]2N2C(=O)N(c3cccc(Cl)c3)C(=O)[C@@]12C [MLS001066281-01]		−2.2	11200 nM	
CCOC(=O)[C@@H]1[C@H]2COc3ccc(Br)cc3[C@H]2N2C(=O)N(c3ccc(Cl)cc3)C(=O)[C@@]12C [MLS001066313-01]		4	44.7 nM	
CCOC(=O)[C@@H]1[C@H]2COc3ccccc3[C@H]2N2C(=O)N(c3ccc(Cl)cc3)C(=O)[C@]12C [MLS001066444-01]		4	7.1 nM	
CCOC(=O)[C@@H]1[C@H]2COc3ccccc3[C@H]2N2C(=O)N(c3ccccc3)C(=O)[C@]12C [MLS001066502-01]		4	794 nM	
CCOC(=O)[C@@H]1[C@H]2COc3cc(OC)ccc3[C@H]2N2C(=O)N(c3ccc(F)cc3)C(=O)[C@]12C [MLS001066238-01]		4		
CCOC(=O)[C@@H]1[C@H]2COc3cc(OC)ccc3[C@@H]2N2C(=O)N(c3cccc(F)c3)C(=O)[C@]12C [MLS001066241-01]		4	3980 nM	
CCOC(=O)[C@@H]1[C@H]2COc3ccccc3[C@H]2N2C(=O)N(c3ccc(C(F)(F)F)cc3)C(=O)[C@]12C [MLS001066275-01]		4	5010 nM	
CCOC(=O)[C@@H]1[C@H]2COc3ccccc3[C@H]2N2C(=O)N(c3cccc(F)c3)C(=O)[C@]12C [MLS001066256-01]		4		
